For experiment [1], the system named is osteosarcoma cell line U2OS. Briefly: Detachment and apoptosis in U2OS cells. It is filed as cell-based, human. As to conditions: U2OS (data not shown). Here is the method:
(§1) c. Treatment of cells with MCP inhibitor. Cells were treated with a specified MCP Inhibitor, a standard anticancer agent (etoposide or cisplatin), or DMSO (vehicle). During this process, morphological changes and cellular detachment (for attached cell lines) were monitored. At each time point, cells were harvested, and used for measurement of apoptosis and other biochemical events. In Example 1, infra, involving YVAD-CMK, Compound A was first added to Jurkat T cells. This was followed immediately by dividing the cells into multiple tissue culture flasks. YVAD-CMK was then added to an indicated concentration.
(§2) d. Flow cytometry nuclear staining and DNA fragmentation assays. DNA content analysis using flow cytometry was performed as described previously (Nicoletti, I., et al. J. Immunol. Methods 139:271-279, 1992). To assay nuclear morphology, cells were washed with PBS, fixed with 70% ethanol for 1 h, and stained with Hoechst 33258 (1 mM) for 30 min. The nuclear morphology of cells was visualized by fluorescence microscope (OLYMPUS BH2). DNA fragmentation was assayed as described previously (Grant, S., et al. Cancer Res. 52:6270-6278, 1992).

The subject of experiment [2] is PARP, RB and caspase-3 cleavage in Jurkat T cells. Briefly: Western blot of caspase-3, PARP and RB in Jurkat T cells. It is filed as cell-based, human. As for the experimental part: (§3) e. Whole cell extracts and western blot assay. To prepare whole cell extracts, cells were washed with PBS, and homogenized in lysis buffer (50 mM Tris, pH 8.0, 5 mM EDTA, 150 mM NaCl, 0.5% Nonidet P-40, 0.5 mM PMSF and 0.5 mM dithiothreitol). Following 30 min rocking at 4° C., the lysates were centrifuged and the supernatants were collected as whole cell extracts. The protein samples were then analyzed by sodium dodecyl sulfate-6% polyacrylamide gel electrophoresis (20-60 μg protein per lane) followed by the enhanced chemiluminescence Western blot assay using specific antibodies to CPP32, PARP, p21, p27 or RB.
(§4) Example 1 was designed to determine if MCP is involved in the survival signaling pathway(s) and if inhibition of MCP activity induces apoptosis. Human Jurkat T cells were treated with 30 μM Compound A for 4 h. […] Both the p112 and p115 forms of RB as p112-115/RB were combined and used as an apoptosis marker.
The ability of these three MCP inhibitors to induce changes in PARP and RB proteins in a parallel experiment was also investigated. […] This rank corresponded exactly to that of the three compounds for inhibition of the chymotrypsin-like activity in isolated proteasomes (Iqbal, M., et al. J. Med Chem. 38: 2276-2277, 1995; Iqbal, M., et al. Bioorg. Med. Chem. Lett. 6: 287-290, 1996) and in intact murine B cells (Harding, C. V., et al. J Immuno. 155: 1767-1775, 1995).
(In general: A western blot detects proteins with antibodies after separation by electrophoresis.)

Another experiment relates to human Jurkat T cells. In words: Apoptosis in Jurkat T cells (flow cytometry sub-G1 DNA content, DNA fragmentation). Type of experiment: cell-based. As to conditions: Jurkat T cells. Here is the method: as §1, §2, §4
When human Jurkat T cells were treated with 15 μM Compound A for 8 h, there was a 23% increase in the apoptotic population with sub-G1 DNA content (FIG. 2, panels b vs. a). By comparison, when Compound B was used, only an 8%-increase in sub-G1 population was detected (FIG. 2, panels c vs. a).
On the technique in general: A flow cytometer gives signals particle by particle.

Experiment [3] concerns Jurkat cells transfected with a control vector. In words: Apoptotic nuclear changes (Hoechst staining) in Jurkat cells transfected with control vector. It is filed as cell-based, human. Here is the method: b. Cell culture. Human Jurkat T and HL-60 cells were grown in RPMI 1640 (Life Technologies, Inc.) supplemented with 10% fetal calf serum (Sigma), 100 units/ml of penicillin, 100 μg/ml of streptomycin and 2mM L-glutamine (growth medium). Jurkat T. cells overexpressing the Bcl-2 oncoprotein or vector alone (provided by Dr. D. Johnson, University of Pittsburgh, Pa.) were grown in the same growth medium with […] G418. Human cancer cell lines of breast (MCF-7, MDA-MB-231), prostate (DU145, PC3) and osteosarcoma (U2-OS), obtained from American Type Culture Collection (ATCC. Rockville, Md.)), were also grown in the RPMI growth medium. Human oral (SCC-25; from ATCC) and brain (SNB-19; Welch, W. C., et al. In Vitro Cell. Dev. Biol., 31:610-616, 1995) cancer cell lines, and normal (WI-38) and SV40-transformed human fibroblasts (WI-38 VA-13; from ATCC) were grown in DMEM medium containing 10% fetal calf serum, penicillin, streptomycin and L-glutamine.
as §2
The apoptosis-inducing potency of Compound A was compared with two standard chemotherapeutic anti-cancer agents, etoposide and cisplatin. […] By comparison, treatment with 50 μM etoposide for 8 h induced only ˜47% of these cells to undergo apoptosis (FIG. 3, panels c vs. a). Treatment of 10 μM Compound A, but not etoposide or cisplatin, induced apoptosis in human prostate, breast, tongue and brain cancer cells and also in SV40 DNA virus-transformed human fibroblasts (see FIGS. 5-7).

Experiment [4] relates to Human prostate cancer PC-3 cells. In words: Detachment and apoptotic nuclear changes in PC-3 cells. It is filed as cell-based. Conditions: PC-3, 10 μM, 36 h. As for the experimental part:
as §1, §2
Human prostate cancer PC-3 cells were treated with 10 μM Compound A, etoposide, or an equal percentage of vehicle (DMSO), followed by separation of the attached and detached cell populations. Both attached and detached cell populations were then used for detection of apoptotic nuclear changes. After 36 h treatment with Compound A, ˜50% of PC-3 cells became detached.

Experiment [5] concerns Normal human fibroblast cell line (WI-38). In words: Detachment, apoptotic nuclear changes and PARP cleavage in normal fibroblasts. It is filed as cell-based. As for the experimental part: as §1, §2, §3
Whether Compound A has, any selectivity in induction of apoptosis between transformed and normal cells was investigated. Normal human fibroblast cell line (WI-38) and its SV40-transformed derivative (WI-38 VA13) were utilized. […]

Molecules are shown by their SMILES.

For `CC(C)C[C@@H](C=O)NC(=O)[C@@H](CCCNC(=N)N[N+](=O)[O-])NC(=O)C(CCCCCCCCN1C(=O)c2ccccc2C1=O)C1CCCC1` (stereo partly shown) [Compound A], the “Induction of cellular detachment and apoptosis” value in experiment [1] is “induced cellular detachment and apoptosis”. The “Production of p85/PARP and p112-115/RB” value in experiment [2] (Jurkat T cells, 15 μM, time course up to 24 h) is “production of p85/PARP and p 112-115/RB were observed after 2 h”. In experiment [2] (Jurkat T cells, 30 μM, 4 h), the “Cleavage of PARP to p85 and RB to p68” value is given as “induced cleavage of PARP to a p85 fragment”; the “Processing of caspase-3” value is reported as “induced processing of caspase-3”. Also, the “Cleavage of PARP” value in experiment [2] (Jurkat cells, 30 μM, 3-4 h) was “complete cleavage of PARP”. Also, the “Increase in the apoptotic population with sub-G1 DNA content” value in the experiment with human Jurkat T cells (15 μM, 8 h) stood at 23%. Also, the “Induction of apoptosis (sub-G1 DNA content, nuclear condensation/fragmentation, internucleosomal DNA fragmentation)” value in the experiment with human Jurkat T cells (30 μM, 4 h) is on record as “apoptosis occurred”. The “Cells exhibiting apoptotic nuclear morphology” value in experiment [3] (15 μM, 8 h) is recorded as 30%. In addition, the “Cells exhibiting apoptotic nuclear changes” value in experiment [3] (30 μM, 3.5 h) is recorded as ~100%. For the same compound, in experiment [4], the Detached cells is listed as ~50%; the “Nuclear morphology (apoptotic condensation and fragmentation)” value is “All the detached PC-3 cells exhibited typical apoptotic nuclear condensation and fragmentation”. Also, the “Detachment and apoptotic nuclear changes” value in experiment [5] (normal WI-38, 10 μM, up to 22 h) is on record as “did not induce either detachment or apoptotic nuclear morphology”. The PARP cleavage entry in experiment [5] (normal WI-38, total cell population) is listed as “not in the normal”.

The values above are taken from US20010012854A1, “MULTICATALYTIC PROTEASE INHIBITORS FOR USE AS ANTI-TUMOR AGENTS” (priority 1997, published 2001).
